Measured values taken from ChEMBL document CHEMBL3045015, “Synthesis and physiological evaluation of new N-nitroso-2,6-dicarbethoxy-3,5-diaryltetrahydro-1,4-thiazine-1,1-dioxides” (Med Chem Res, 2012).

Legend:
Staphylococcus aureus [1] = assay: Antibacterial activity against Staphylococcus aureus MTCC 96 at 10 ug/ml by disk diffusion method; assay type: functional; conditions: read-out: IZ
Pseudomonas aeruginosa [2] = assay: Antibacterial activity against Pseudomonas aeruginosa […] at 10 ug/ml by disk diffusion method; assay type: functional; conditions: read-out: IZ
Mus musculus = assay: Acute toxicity in Mus musculus (mouse) at 300 mg/kg; assay type: organism-based; design: dose 300 mg/kg; conditions: in vivo
Escherichia coli [3] = assay: Antibacterial activity against Escherichia coli MTCC 722 at 10 ug/ml by disk diffusion method; assay type: functional; conditions: read-out: IZ
Candida albicans [4] = assay: Ratio of compound IZ to nystatin IZ for Candida albicans MTCC 227 at 10 ug/ml by disk diffusion method; assay type: functional
Streptococcus pyogenes [5] = assay: Antibacterial activity against Streptococcus pyogenes MTCC 389 at 10 ug/ml by disk diffusion method; assay type: functional; conditions: read-out: IZ
Staphylococcus aureus [6] = assay: Ratio of compound IZ to amikacin IZ for Staphylococcus aureus MTCC 96 at 10 ug/ml by disk diffusion method; assay type: functional
Escherichia coli [7] = assay: Ratio of compound IZ to amikacin IZ for Escherichia coli MTCC 722 at 10 ug/ml by disk diffusion method; assay type: functional
Pseudomonas aeruginosa [8] = assay: Ratio of compound IZ to amikacin IZ for Pseudomonas aeruginosa […] at 10 ug/ml by disk diffusion method; assay type: functional
Candida albicans [9] = assay: Antifungal activity against Candida albicans MTCC 227 at 10 ug/ml by disk diffusion method; assay type: functional; conditions: read-out: IZ
Streptococcus pyogenes [10] = assay: Ratio of compound IZ to amikacin IZ for Streptococcus pyogenes MTCC 389 at 10 ug/ml by disk diffusion method; assay type: functional

Row | SMILES | zone of inhibition at 10 µg/mL (Staphylococcus aureus [1]) [mm] | zone of inhibition at 10 µg/mL (Pseudomonas aeruginosa [2]) [mm] | Activity (Mus musculus) | zone of inhibition at 10 µg/mL (Escherichia coli [3]) [mm] | Ratio (Candida albicans [4]) | zone of inhibition at 10 µg/mL (Streptococcus pyogenes [5]) [mm] | Ratio (Staphylococcus aureus [6]) | Ratio (Escherichia coli [7]) | Ratio (Pseudomonas aeruginosa [8]) | zone of inhibition at 10 µg/mL (Candida albicans [9]) [mm] | Ratio (Streptococcus pyogenes [10])
1 | CCOC(=O)C1C(c2ccc[nH]2)N(N=O)C(c2ccc[nH]2)C(C(=O)OCC)S1(=O)=O (configuration not stated) | 13 | 12 | Non-toxic | 11 | 0.58 | 14 | 0.72 | 0.65 | 0.71 | 11 | 0.7
2 | CCOC(=O)C1C(c2cc3ccccc3nc2Cl)N(N=O)C(c2cc3ccccc3nc2Cl)C(C(=O)OCC)S1(=O)=O (configuration not stated) | 14 | 10 | Non-toxic | 9 | 0.95 | 12 | 0.78 | 0.53 | 0.59 | 18 | 0.6
3 | CCOC(=O)C1C(c2c[nH]c3ccccc23)N(N=O)C(c2c[nH]c3ccccc23)C(C(=O)OCC)S1(=O)=O (configuration not stated) | 8 | 11 | Non-toxic | 12 | 0.79 | 9 | 0.44 | 0.71 | 0.65 | 15 | 0.45
4 | CCOC(=O)C1C(c2ccc(OC)c(OC)c2)N(N=O)C(c2ccc(OC)c(OC)c2)C(C(=O)OCC)S1(=O)=O (configuration not stated) | 12 | 11 | Non-toxic | 13 | 0.74 | 8 | 0.67 | 0.76 | 0.65 | 14 | 0.4
5 | CCOC(=O)C1C(c2ccccc2)N(N=O)C(c2ccccc2)C(C(=O)OCC)S1(=O)=O (configuration not stated) | 11 | 13 | Non-toxic | 12 | 0.69 | 15 | 0.61 | 0.71 | 0.76 | 13 | 0.75
6 | CCOC(=O)C1C(c2ccccc2Cl)N(N=O)C(c2ccccc2Cl)C(C(=O)OCC)S1(=O)=O (configuration not stated) | 9 | 12 | Non-toxic | 13 | 0.84 | 10 | 0.5 | 0.76 | 0.71 | 16 | 0.5
7 | CCOC(=O)C1C(c2cccc(Cl)c2)N(N=O)C(c2cccc(Cl)c2)C(C(=O)OCC)S1(=O)=O (configuration not stated) | 11 | 10 | Non-toxic | 14 | 0.79 | 8 | 0.61 | 0.82 | 0.59 | 15 | 0.4
8 | CCOC(=O)C1C(c2ccc(Cl)cc2)N(N=O)C(c2ccc(Cl)cc2)C(C(=O)OCC)S1(=O)=O (configuration not stated) | 10 | 12 | Non-toxic | 13 | 0.84 | 10 | 0.56 | 0.76 | 0.71 | 16 | 0.5
9 | CCOC(=O)C1C(c2cccc([N+](=O)[O-])c2)N(N=O)C(c2cccc([N+](=O)[O-])c2)C(C(=O)OCC)S1(=O)=O (configuration not stated) | 12 | 15 | Non-toxic | 14 | 0.69 | 9 | 0.67 | 0.82 | 0.88 | 13 | 0.45
10 | CCOC(=O)C1C(c2ccc([N+](=O)[O-])cc2)N(N=O)C(c2ccc([N+](=O)[O-])cc2)C(C(=O)OCC)S1(=O)=O (configuration not stated) | 13 | 11 | Non-toxic | 17 | 0.63 | 17 | 0.72 | 1 | 0.65 | 12 | 0.85
11 | CCOC(=O)C1C(c2ccc(OC)cc2)N(N=O)C(c2ccc(OC)cc2)C(C(=O)OCC)S1(=O)=O (configuration not stated) | 11 | 18 | Non-toxic | 12 | 0.69 | 13 | 0.61 | 0.71 | 1.11 | 13 | 0.65
12 | CCOC(=O)C1C(c2ccc(C)cc2)N(N=O)C(c2ccc(C)cc2)C(C(=O)OCC)S1(=O)=O (configuration not stated) | 11 | 9 | Non-toxic | 17 | 0.58 | 17 | 0.61 | 1 | 0.53 | 11 | 0.85
13 | CCOC(=O)C1C(c2ccco2)N(N=O)C(c2ccco2)C(C(=O)OCC)S1(=O)=O (configuration not stated) | 12 | 10 | Non-toxic | 15 | 0.74 | 11 | 0.67 | 0.88 | 0.59 | 14 | 0.55
14 | CCOC(=O)C1C(c2cccs2)N(N=O)C(c2cccs2)C(C(=O)OCC)S1(=O)=O (configuration not stated) | 17 | 14 | Non-toxic | 13 | 1.11 | 15 | 0.94 | 0.76 | 0.82 | 20 | 0.75
15 | CCOC(=O)C1C(c2ccsc2)N(N=O)C(c2ccsc2)C(C(=O)OCC)S1(=O)=O (configuration not stated) | 15 | 13 | Non-toxic | 14 | 0.74 | 9 | 0.83 | 0.82 | 0.76 | 14 | 0.45
16 | CCOC(=O)C1C(c2ccccn2)N(N=O)C(c2ccccn2)C(C(=O)OCC)S1(=O)=O (configuration not stated) | 13 | 9 | Non-toxic | 10 | 0.63 | 11 | 0.72 | 0.59 | 0.53 | 12 | 0.55
17 | CCOC(=O)C1C(c2cccnc2)N(N=O)C(c2cccnc2)C(C(=O)OCC)S1(=O)=O (configuration not stated) | 14 | 11 | Non-toxic | 12 | 0.79 | 8 | 0.78 | 0.71 | 0.65 | 15 | 0.4
18 | CCOC(=O)C1C(c2ccc3c(c2)OCO3)N(N=O)C(c2ccc3c(c2)OCO3)C(C(=O)OCC)S1(=O)=O (configuration not stated) | 9 | 12 | Non-toxic | 8 | 0.53 | 11 | 0.5 | 0.47 | 0.71 | 10 | 0.55
19 | NCC[C@H](O)C(=O)N[C@@H]1C[C@H](N)[C@@H](O[C@H]2O[C@H](CN)[C@@H](O)[C@H](O)[C@H]2O)[C@H](O)[C@H]1O[C@H]1O[C@H](CO)[C@@H](O)[C@H](N)[C@H]1O [AMIKACIN] | 18 | 17 |  | 17 |  | 20 |  |  |  |  | 
